Assays:
[1] = Zeta potential measurements; type: physicochemical; settings: 400 µM; pH:7.2 (Figure 2F legend), text says physiological pH 7.4
Description: Scale bars represent 200 nm.
Under physiological conditions, glutamic acid carries a negative charge, while histidine, lysine, and arginine carry positive charges.

[2] = TEM imaging of assemblies; type: physicochemical; settings: TEM images
Protocol: (C) FTIR spectra of NpxFFR (light green), NpxFFK (orange), NpxFFH (dark green), NpxFFE (purple) and Npx (medium spring green). (D) Hydrogel formation of Npx-peptide conjugates at 20 mg/mL concentration in ddH2O. […] (F) Zeta potential measurements of 400 µM Npx-peptide conjugates at pH:7.2. (G) TEM images of Npx and Npx-peptide conjugates. Scale bars represent 200 nm.

C28/I2 chondrocytes = test: Chondrocyte proliferation (Calcein-AM staining and MTT quantification); type: cell-based, human; settings: C28/I2 chondrocytes, 1, 2 and 3 days, compared to non-treated control
[3] = system: LPS-stimulated RAW264.7 cells; test: COX-2 and pro-inflammatory factor expression (qRT-PCR, immunofluorescence); type: cell-based, mouse; settings: RAW264.7, 1 µg/mL LPS, 400 µM; 6 h, 12 h (PCR), 12 h or 24 h (immunofluorescence)
Protocol: After treatment, cells were harvested and total RNA was extracted using a total RNA purification kit (SparkJade, China), and cDNA was obtained from total RNA by a reverse transcription kit (SparkJade). Finally, qRT-PCR was performed using SYBR Green qPCR premix (SparkJade) on QuantGene 9600 real-time PCR (Bioer, Hangzhou, China). 2 Calculation of Relative Gene Expression-ΔΔCT method was used, and GAPDH was used as an internal reference gene.
Immunofluorescence staining was performed following a general procedure. After treatment, cells were fixed with 4% paraformaldehyde for 20 min, and permeabilized in 0.5% Triton X-100 for 5 min. 10% goat serum was used to block non-specific binding. Cells were then incubated with primary antibodies overnight. Then cells were incubated with fluorescently labeled secondary antibody for 1 h. […] For assessing RAW264.7 macrophage polarization, permeabilization procedure is not needed; anti-CD86 and anti-CD163 primary antibodies were used for identifying M1 macrophage or M2 macrophage, respectively. Primary antibodies included: anti-CD86 (1:300), anti-CD163 (1:300), anti-COX2 (1:300) and anti-COL2 (1:300). Cy3 or FITC labeled secondary antibodies were used for fluorescent imaging.

[4] = system: LPS-stimulated RAW264.7 cells; test: ELISA quantification of PGE2; type: cell-based, mouse; settings: 400 µM, 6 h, 12 h, n = 3
Description: Figure 4 COX-2 inhibition of NpxFFK. (A) molecular docking of COX-2 (PDB ID: 6COX) with NpxFFK. (B) Binding of NpxFFK with amino acid residues in the active pocket of COX-2. (C) Schematic representation of the anti-inflammatory mechanism of Npx and the peptide NpxFFK. […] Scale bars represent 200 µm. […] The blank groups in panel D-G referred to the RAW264.7 cells without stimulation of LPS.

[5] = DPPH free radical scavenging test; settings: PBS (pH 7.2), 400 µM, 2 h, 25 °C, absorbance 517 nm, n = 3
Protocol: (§1) DPPH free radical scavenging test
(§2) DPPH (2, 2-Diphenyl -1-[…]) radical solution (0.58 mg/mL) was prepared by dissolving DPPH radical in anhydrous ethanol. Briefly, 6mg of […]
(§3) solution which were then incubated in dark for 2 h at 25°C. The absorbance of the mixed solution at 517 nm was measured using an enzyme-labeled instrument. The scavenging ability was calculated as DPPH free radical scavenging rate (%) = [(A0-A1)/A0] × 100%, where A0 is the absorbance of DPPH free radical solution, A1 is the absorbance of sample group. The experiment was repeated three times for each sample.
(§4) ABTS·+ free radical scavenging test […]
(§5) free radical solution, and then incubated at 25 °C for 30 mins in dark. The absorbance at 734 nm was measured using an enzyme-labeled instrument.
(§6) ABTS+ free radical scavenging activity is calculated according to the following formula: ABTS+ free radical scavenging rate (%) = [(A0-A1)/A0] × 100%, where A0 is the absorbance of ABTS+ free radical solution, and A1 is the absorbance of sample group. […]
(§7) Figure S14. Quantitative analysis of immunofluorescent staining of macrophages in Figure 5A and 5B. […]
(§8) Figure S16. Quantitative analysis of ROS fluorescent intensities (A) in Figure 5D, and fluorescent ratio of JC-1 in aggregate to monomer (B) in Figure 5E. […]

[6] = ABTS+ free radical scavenging test; settings: PBS (pH 7.2), 400 µM, 30 mins, 25 °C, absorbance 734 nm, n = 3
Protocol: as §1, §2, §3, §4, §5, §6, §7, §8

OA rat model [7] = test: Footprint gait analysis in MIA-induced OA rats; type: in vivo, SD rats; settings: IA injection, 100 mg/kg, 2 weeks
Protocol: The OA model was induced by local injection of 50 µL/1mg sodium iodoacetate (MIA) into the joint cavity of each rat. Rats injected with saline were treated as the sham group (n = 6). […] Each group contained 6 rats. 50 µL drugs were injected locally at day 0 and day 14, respectively. After 14 days of treatment, the rats were examined by indentation-collecting gait analysis, after which the rats were euthanized with isoflurane, and the knee joints were sampled for gross morphological observation. After 28 days of treatment, sampling was performed for micro-CT analysis, histological staining and immunohistochemistry.
The cardboard is laid flat on the floor. Both forelimbs of the rats were covered with blue ink and both hind legs with red ink, ensuring that the movements of the animals were as clear as possible. The sides of the runway consisted of cardboard, and the width was rationalized according to the weight and size of the rat. The room environment was kept quiet and the rats were placed on one side of the runway and allowed to pass freely. Before the start of the experiment, the rats were given two consecutive days of behavioral acclimatization training.

OA rat model [8] = test: Immunofluorescence and immunohistochemistry of joint sections in OA rats; type: in vivo, SD rats; settings: 100 mg/kg IA, 4 weeks
Protocol: The knee joints were fixed in 4% paraformaldehyde, decalcified for 4 weeks, and embedded in paraffin for histological evaluation. Subsequently, the samples were sectioned and stained with hematoxylin and eosin (H&E) as well as […]/Fast Green. An enhanced Mankin scoring system was used to assess the pathologic status of the knee joint. Sections were incubated overnight at 4 °C with primary antibodies and further stained with a fluorescently labeled secondary antibody or 3,3'-diaminobenzidine (DAB)-tagged secondary antibody for immunohistochemical analysis.

Zeta Potential [1]: -20.3 mV
Morphology of assemblies (TEM) [2]: uneven aggregates
SMILES: COc1ccc2cc([C@H](C)C(=O)O)ccc2c1 [Npx, naproxen]
Effect on chondrocyte proliferation (C28/I2 chondrocytes): the proliferation decreased over time
COX-2 expression at gene level and protein level [3]: downregulated COX-2 expression
PGE2 production [4]: reduced PGE2 production
DPPH radical scavenging activity [5]: neglectable radical scavenge activity
ABTS+ radical scavenging activity [6]: neglectable radical scavenge activity
Stride length (OA rat model [7]; sham 12.83 cm, saline 7.57 cm): 9.42 cm
Hindpaw contact area (OA rat model [7]; versus sham and saline): partial improvement
Expression of COX-2, TNF-α and IL-1β in joint sections (OA rat model [8]): significantly reduced the expression of COX-2

Reference: article PMC12439141, “Self-Assembling Hydrogels of Naproxen-Conjugated Peptides for Osteoarthritis Treatment” (Theranostics, 2025)
